Key:
[1] = tested on: [^3 H] spiperone binding sites (lymphocytes from Parkinsonian patients); conditions: after treatment, before treatment 7±6
[2] = tested on: dopaminergic receptors (B lymphocytes); conditions: [^3 H spiperone] = 1 nM; L-methionine 500 mg/kg I.P. twice daily over 5 days; n = 10; *P < 0.01; control 17 ± 3
Description: (§1) Since nude mice have no thymus gland, all of the lymphocytes of the spleen thereof are of the B type. Thus, these mice have the advantage of presenting pure B lumphocytes for observation. […] The [^3 H] spiperone bindings to striatal membranes (see Europ. J. Pharmacol. 50, 283, 1978) and intact B lymphocytes (see J. Pharm. Pharmacol. 33, 102, 1981) were performed in the same animal.

[3] = target: dopaminergic receptors (striatum) (Mus musculus, UniProt P61168)
Description: as §1

[4] = Water solubility and wettability of L-methionine; assay type: physicochemical; conditions: flakes
Parkinsonism = conditions: with L-Dopa; J. Amer. Med. Assoc. 230, 305, 1974; cited from earlier work
Parkinsonian patients = conditions: 11 patients, 5 g/day, after 2 weeks, especially on akinesia, tremor and mood
rats = conditions: IV; cited from earlier work

dopaminergic receptors (striatum), sequence (P61168 whole entry): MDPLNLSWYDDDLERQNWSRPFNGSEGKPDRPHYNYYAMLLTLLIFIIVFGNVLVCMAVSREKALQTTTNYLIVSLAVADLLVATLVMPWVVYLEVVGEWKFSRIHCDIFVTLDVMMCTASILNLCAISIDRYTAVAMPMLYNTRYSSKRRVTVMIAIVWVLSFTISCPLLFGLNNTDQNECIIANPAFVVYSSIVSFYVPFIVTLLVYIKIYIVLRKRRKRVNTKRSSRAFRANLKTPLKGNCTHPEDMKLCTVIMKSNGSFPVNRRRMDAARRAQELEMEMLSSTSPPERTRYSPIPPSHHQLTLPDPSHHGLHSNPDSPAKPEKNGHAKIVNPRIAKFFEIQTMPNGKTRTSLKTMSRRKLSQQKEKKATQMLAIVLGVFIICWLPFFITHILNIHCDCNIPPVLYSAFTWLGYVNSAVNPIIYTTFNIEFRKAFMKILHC

## CSCC[C@H](N)C(=O)O [L-methionine]
[1]
  number of [^3 H] spiperone binding sites to lymphocytes: 98±19 fentomoles per 10^6 cells
[2]
  [^3 H] spiperone binding, B lymphocytes: 37 ± 5 fmoles/10^6 cells
[3]; KD of [^3 H] spiperone (not of L-methionine), striatum of treated mice, chronic treatment, control 0.17 nM
  affinity constant [KD]: 200 pM
[3]; [^3 H spiperone] = 0.3 nM, L-methionine 500 mg/kg I.P. twice daily over 5 days, n = 10, **P < 0.001, control 40 ± 1
  [^3 H] spiperone binding, striatum: 62 ± 3 fmoles/mg protein
[3]; [^3 H] spiperone, striatum of treated mice, chronic treatment, control 302
  number of binding sites [Bmax]: 491 fmoles/mg protein
[3]; [^3 H] spiperone, striatum, chronic treatment of L-methionine
  change in affinity constant [KD]: no change in the affinity constant was detected
[4]
  solubility in water: slightly soluble in water
  wettability: poorly wettable
Parkinsonism
  effect on L-Dopa effectiveness in Parkinsonism: may reverse the effectiveness of L-Dopa
Parkinsonian patients
  improvement of Parkinsonism: very good improvement
rats
  LD50: 4500 mg/kg
